Assay results from patent US10066025B2, “Compositions and methods for detecting, treating and preventing diseases and disorders” (YALE UNIVERSITY, priority 2012, dated 2018).
Entries after “also recorded” stand apart in the source; their conditions may differ.

Key:
HK-2 cells = assay: HK-2 cell cisplatin toxicity (WST-1 viability, western blot); type: cell-based, human; settings: 20 μM cisplatin, 24 hrs
Experimental: Cultured HK-2 cells were incubated with 20 μM cisplatin for 24 hours with and without recombinant renalase. Renalase expression was examined by Western blot and cell viability (mitochondrial integrity) was determined spectrophotometrically using WST-1, a tetrazolium salt that is cleaved, by mitochondrial dehydrogenases of metabolically active and viable cells, to formazan (420-480 nm) (Boehringer Mannheim, Germany).
HK2 cells (human proximal tubular line) obtained from ATTC (Manassas, Va., USA) were cultured in DMEM/F12 supplemented with glutamine, 10% FBS and antibiotics, and were maintained at 37° C. in 5% CO2. Cells were exposed to cisplatin (20 μM) in the presence or absence of renalase for 24 hrs, and cell viability was assessed by the WST1 method (Roche Applied Science, Germany). Cells were then harvested in RIPA buffer (20 mM Tris-HCl pH 7.5, 150 mM NaCl, 1 mM Na2EDTA, 1 mM EGTA, 1% NP-40, 1% sodium deoxycholate, 2.5 mM sodium pyrophosphate, 1 mM β-glycerophosphate, 1 mM Na3VO4, 1 μg/ml leupeptin) supplemented with a protease and phosphatase inhibitor cocktail (Roche Applied Science, Germany). Proteins were separated by SDS-PAGE and Western blotting was carried out using the following antibodies: anti-renalase monoclonal (Desir et al., 2012, J Am Heart Assoc. 1:e002634; (Lee et al., 2013, J Am Soc Nephrol 24:445-455); anti caspase 3 (Cell Signaling Technology, MA, USA) and anti Bcl2 (Thermo Scientific, USA). Necrotic injury in HK-2 cells (ATCC, Manassas, Va.) was induced with exposure to 2 mM H2O2 for 2-8 hr and lactate dehydrogenase (LDH) released into cell culture media was measured as described using a commercial LDH assay kit (Promega, Madison, Wis.) (Lee and Emala, 2002, American journal of physiology. Renal physiology 282:F844-852).

cisplatin-mediated AKI = assay: Murine model of cisplatin AKI; type: in vivo, mice; settings: cisplatin + peptide; Sham 0.05±0.002, cisplatin 0.177±0.02; n=3
Experimental: The efficacy of recombinant renalase in treating cisplatin-induced AKI was investigated, and the mechanisms that mediate its protective action were assessed. Cisplatin (20 mg/kg) was administered by intra-peritoneal injection to either WT or renalase KO mice. The mice were sacrificed 3 days later. Blood was collected for BUN and creatinine measurements, and kidneys harvested for histologic examination, immunofluorescence (IF), and western blotting (WB). One renal pathologist, masked to the identity of the study animal, reviewed each kidney specimen. Pathologic features were scored using an ordinal rating scale (0-4; 0=none; 1=<25%, 2=26-50%; 3=51-75%; 4=76-100%) for the presence of tubular necrosis. Morphometry of renal cortex and medulla was performed using point counting technique. Points falling on injured tubules, were counted and the percentage of lesion area was calculated as percentage of total points counted
Cisplatin (15-20 mg/kg) was administered by intraperitoneal injection (IP) to either WT or renalase KO mice under brief isoflurane anesthesia. The animals were sacrificed 3 days later. […] Pathologic features were scored using an ordinal rating scale (0-4; 0=none; 1=<25%, 2=26-50%; 3=51-75%; 4=76-100%) for the presence of tubular necrosis. […] Points falling on injured tubules were counted, and the percentage of lesion area was calculated as percentage of total points counted. […]

[1] = NADH / amine oxidase activity of renalase peptides; type: biochemical; settings: 25 mM Tris, pH 7.5, 5 mM NaCl, 150 μM NADH, 37° C.
Experimental: Renalase isoforms Ren1-7; exons numbered from 1 to 10; RP-224: renalase peptide amino acid 224-233 of Ren1 or Ren2; RP-220; amino acids 220-239; RP-H220: histidine tagged RP-220; RP-Scr220: scrambled RP-220 (FIG. 19A). CCL-119 cells in culture treated with anti-renalase monoclonal antibody for 24 hrs; cell survival measured by the WST-1 method; n=3, *: P<0.05 (FIG. 19B). HK-2 cell treated with 2 mM H2O2 with and without renalase peptides for indicated time; LDH: lactate dehydrogenase; n=6, *: P<0.05 for Control vs. renalase peptide (FIG. 19C). HK-2 cells treated with 20 μM cisplatin with and without recombinant renalase and renalase peptides for 24 hrs, *: P<0.05, control vs. renalase peptide (FIG. 19D). Plasma creatinine levels from mice subjected to sham-surgery or to renal ischemia and reperfusion (IR); Renalase WT mice were subjected to sham-surgery or to 30 min renal IR. For mice subjected to renal IR, RP-H220 or vehicle (saline) was injected 10 min prior to renal ischemia.
Human recombinant renalase was synthesized as described (Desir et al., 2012, J Am Heart Assoc. 1:e002634). […] Renalase enzymatic activity was measured as previously described (Desir et al., 2012, J Am Heart Assoc. 1:e002634). Renalase expression was detected using an anti-renalase monoclonal antibody generated against the renalase peptide RP-220 (amino acid

For “RP H220: histidine tagged RP-220, SEQ ID NO: 4, HHHHHHCIRFVSIDNKKRNIESSEIG (listed as Homo sapiens)”, the “cell survival / protection against cisplatin toxicity” value (HK-2 cells) was “improved HK-2 cell survival”, the “creatinine measured by HPLC” value (cisplatin-mediated AKI) was 0.085±0.007 and the “NADH or amine oxidase activity” value [1] was “no detectable NADH or amine oxidase activity; also recorded: neither detectable oxidase activity”.
